We go through 17 compounds from publication PMC12391391, “The balance between B55α and Greatwall expression levels predicts sensitivity to Greatwall inhibition in cancer cells” (Nature Communications, 2025).

Data set [1] has as its target T1, Greatwall kinase (GWL, MASTL) (Homo sapiens, UniProt Q96GX5, K72M).
T1 construct: full-length
T1 sequence (Q96GX5 1-879 K72M): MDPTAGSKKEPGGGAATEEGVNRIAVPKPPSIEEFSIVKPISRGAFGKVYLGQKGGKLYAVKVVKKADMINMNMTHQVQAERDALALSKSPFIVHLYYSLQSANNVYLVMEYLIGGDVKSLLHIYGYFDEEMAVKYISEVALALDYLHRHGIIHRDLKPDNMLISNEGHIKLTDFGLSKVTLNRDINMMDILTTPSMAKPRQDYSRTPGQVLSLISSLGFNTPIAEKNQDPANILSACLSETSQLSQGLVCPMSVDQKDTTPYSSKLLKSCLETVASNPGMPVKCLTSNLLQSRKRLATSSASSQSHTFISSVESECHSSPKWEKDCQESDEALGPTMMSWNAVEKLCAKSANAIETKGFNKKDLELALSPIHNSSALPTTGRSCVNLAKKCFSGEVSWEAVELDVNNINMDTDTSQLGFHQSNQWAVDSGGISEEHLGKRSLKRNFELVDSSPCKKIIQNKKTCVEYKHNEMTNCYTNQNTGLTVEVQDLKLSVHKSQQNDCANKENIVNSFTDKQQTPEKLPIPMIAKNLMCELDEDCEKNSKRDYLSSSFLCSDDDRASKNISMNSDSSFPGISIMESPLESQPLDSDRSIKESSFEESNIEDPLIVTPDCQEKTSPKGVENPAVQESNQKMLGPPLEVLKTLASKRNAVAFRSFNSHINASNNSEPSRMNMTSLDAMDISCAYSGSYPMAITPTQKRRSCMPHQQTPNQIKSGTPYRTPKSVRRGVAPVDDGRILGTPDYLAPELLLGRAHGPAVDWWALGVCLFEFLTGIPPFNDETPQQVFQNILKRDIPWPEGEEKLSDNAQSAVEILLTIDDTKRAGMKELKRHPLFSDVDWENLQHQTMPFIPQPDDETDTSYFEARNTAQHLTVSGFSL
The experiment in a line: biochemical. Also on record: HTRF kinase assay with full-length GWL and ENSA, inhibition. An excerpt: To discover small molecules interfering with GWL activity, we screened a kinase-focused subset of the AstraZeneca compound collection in the full-length hyperactive GWL (K72M) homogeneous time-resolved fluorescence (HTRF) assay. The kinase screening collection comprised around 40,000 samples of interest, augmented by exemplars of kinase hinge-binding motifs, literature-reported kinase actives and screening catalogue purchases (mean MW ≈ 360, mean clogP ≈ 2.8), aiming to achieve as wide a coverage of the kinome as possible. Initially, we selected potential active molecules with a z-score ≤ −5 (equivalent to approximately 25% inhibition or better) and performed compound clustering, followed by near-neighbour testing and determination of relevant median inhibitory concentration (IC50) values. Subsequent re-clustering based on GWL inhibitory potency, Cdk1 selectivity, broad kinome selectivity and additional known factors influencing drug developability, such as molecular weight, lipophilicity and the number of hydrogen donors and acceptors, generated six prioritised compound clusters (Supplementary Fig. 1a, b). […] Despite the favourable kinase selectivity profile of cluster 5, we considered this series less attractive due to the limited number of compounds (n = 5) and suboptimal molecular properties for a hit, such as higher lipophilicity, lower binding efficiency (as indicated by ligand-lipophilic efficiency, LLE) and greater molecular weight (Supplementary Fig. 1a, b). […] We selected compound 1 as the lead exemplar of cluster 3 and leveraged it as a foundation for subsequent drug development (Fig. 1a). Structure-activity relationship studies and pharmacokinetic profiling produced several derivative molecules, of which compound 21 provided the best combination of outstanding inhibitory potential, low clearance in mouse microsomes and acceptable solubility (Fig. 1a–c and Supplementary Tables 1–4). […] This assessment was supported by structural modelling of the interaction between compound 21 and the active site of GWL (Fig. 1d). In further support of its GWL-targeting properties, compound 21 diminished the phosphorylation of the canonical GWL substrate ENSA(S67) in Xenopus laevis cytostatic factor (CSF) egg extract (Supplementary Fig. 2). Having satisfied the criteria of prospective GWL inhibitor, the racemic compound 21 was registered as UOS-00054604 and, for the remainder of the manuscript, is referred to as C-604.  Fig. 1 Development and characterisation of the GWL kinase inhibitor C-604. a Chemical structure of the lead exemplar compound 21 and the general synthetic route towards the preparation of pyrrolopyrazine GWL inhibitors. (a) for 4a, (i) NaH, SEM-Cl, DMF, 0 °C, 4 h; (ii) Arnold’s reagent, CHCl3, 60 °C, 20 h; (iii) NaClO2, KH2PO4, NH2SO3H, 1,4-dioxane/water, 0 °C to rt, 2 h, 35% (three steps); for 4b, (i) hexamine, TFA, MW, 80 °C, 20 min; (ii) NaH, SEM-Cl, DMF, 0 °C to rt, 16 h; (iii) NaClO2, KH2PO4, NH2SO3H, 1,4-dioxane/water, 0 °C to rt, 1.5 h, 14% (three steps); (b) 2 M methylamine in THF, T3P, pyridine, EtOAc, 60 °C, 2-4 h, 89-97%; (c) 2-(pyrrolidin-1-yl)ethanol, CuI, L-proline, K2CO3, DMSO, 100 °C, 16 h, 48%; (d) TFA, DCM, rt, 16 h then ethylenediamine, DCM, rt, 3-6 h, 29-92%; (e) 1-methylpiperazine, CuI, L-proline, K2CO3, DMSO, 100 °C, 16 h, 77%; (f) boronate ester, Pd(dppf)Cl2 · DCM, 1,4-dioxane/water, MW, 120 °C, 30 min, 43-81%; (g) boronate ester, Pd(dppf)Cl2 · DCM, 1,4-dioxane/water, MW, 120 °C, 30 min, 56%; (h) amine, K2CO3, DMF, 95 °C, 1 h, 32-67%. b Chemical structure of the lead compound 21 (C-604). c Dose-dependent effect of compound 21 (C-604) on the in vitro GWL activity measured by an HTRF assay utilising purified full-length GWL (K72M) and ENSA. Per cent (%) inhibition was determined from fluorescence intensity values normalised to the signal measured in the control enzyme-free reaction. […]

Data set [2] addresses T2, CDK1/cyclinB (Homo sapiens, UniProt P06493). The experiment in a line: biochemical. The arrangement: CDK1/cyclin B and off-target kinase inhibition assay.
The nature of data set [3]: in vitro. Also on record: intrinsic clearance in mouse microsomes. Conditions: liver microsomes; mouse liver microsomes. An excerpt:
(§1) We selected compound 1 as the lead exemplar of cluster 3 and leveraged it as a foundation for subsequent drug development (Fig. 1a). Structure-activity relationship studies and pharmacokinetic profiling produced several derivative molecules, of which compound 21 provided the best combination of outstanding inhibitory potential, low clearance in mouse microsomes and acceptable solubility (Fig. 1a–c and Supplementary Tables 1–4). […] This assessment was supported by structural modelling of the interaction between compound 21 and the active site of GWL (Fig. 1d). In further support of its GWL-targeting properties, compound 21 diminished the phosphorylation of the canonical GWL substrate ENSA(S67) in Xenopus laevis cytostatic factor (CSF) egg extract (Supplementary Fig. 2). Having satisfied the criteria of prospective GWL inhibitor, the racemic compound 21 was registered as UOS-00054604 and, for the remainder of the manuscript, is referred to as C-604.

The nature of data set [4]: in vitro. The arrangement: intrinsic clearance in human microsomes. Conditions: liver microsomes, human liver microsomes.
Description: as §1
A general note: Microsomes from liver hold many membrane-bound enzymes, among them those of drug oxidation.

A further data set can be described thus: physchem. The arrangement: aqueous solubility at pH 7.0. Conditions: pH 7.0; buffer pH 7.0; aqueous buffer pH 7.0.
Description: as §1

Data set [5] deals with T1, Greatwall kinase (GWL, MASTL). Description: HTRF kinase assay with purified full-length GWL (K72M) and ENSA. It counts as biochemical. (In TR-FRET formats the signal depends on donor and acceptor labels being close together.)
The target in data set [6] is T2, CDK1/cyclinB. The experiment in a line: biochemical. Also on record: CDK1/cyclin B and off-target kinase inhibition assay. Conditions: read-out: off-target pIC50 (converted).
Another data set has as its target Syk (Homo sapiens, UniProt P43405). Description: biochemical. The arrangement: CDK1/cyclin B and off-target kinase inhibition assay. The settings on record: read-out: off-target pIC50 (converted).
For another data set, the target named is T3, hERG (Homo sapiens, UniProt Q12809).
T3 construct: gene KCNH2
Description: cell-based. The arrangement: hERG channel inhibition.
Description: as §1

Read-outs that look alike come from different tables or passages of the source.

T2 sequence (P06493 whole entry): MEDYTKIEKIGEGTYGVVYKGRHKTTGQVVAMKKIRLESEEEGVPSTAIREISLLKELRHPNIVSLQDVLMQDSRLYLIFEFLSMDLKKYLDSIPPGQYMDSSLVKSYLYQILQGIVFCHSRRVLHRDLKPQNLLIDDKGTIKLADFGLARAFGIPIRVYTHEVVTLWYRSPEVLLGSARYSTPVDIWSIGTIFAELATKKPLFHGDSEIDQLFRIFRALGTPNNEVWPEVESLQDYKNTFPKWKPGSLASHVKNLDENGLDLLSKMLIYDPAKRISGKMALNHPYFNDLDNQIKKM
T2 sequence (P14635 whole entry partner): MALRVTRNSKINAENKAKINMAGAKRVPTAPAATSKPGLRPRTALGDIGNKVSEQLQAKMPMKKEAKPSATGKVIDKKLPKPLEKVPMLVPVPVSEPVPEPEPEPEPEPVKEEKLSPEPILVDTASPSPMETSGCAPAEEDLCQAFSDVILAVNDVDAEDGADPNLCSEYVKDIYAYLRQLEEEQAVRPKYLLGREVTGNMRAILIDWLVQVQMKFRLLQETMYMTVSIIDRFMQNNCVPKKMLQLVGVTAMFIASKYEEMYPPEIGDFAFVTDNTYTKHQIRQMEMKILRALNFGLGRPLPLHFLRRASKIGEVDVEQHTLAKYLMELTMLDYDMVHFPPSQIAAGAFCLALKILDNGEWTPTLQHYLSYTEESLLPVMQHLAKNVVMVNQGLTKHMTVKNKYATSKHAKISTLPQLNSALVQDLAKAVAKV
T3 sequence (Q12809 whole entry): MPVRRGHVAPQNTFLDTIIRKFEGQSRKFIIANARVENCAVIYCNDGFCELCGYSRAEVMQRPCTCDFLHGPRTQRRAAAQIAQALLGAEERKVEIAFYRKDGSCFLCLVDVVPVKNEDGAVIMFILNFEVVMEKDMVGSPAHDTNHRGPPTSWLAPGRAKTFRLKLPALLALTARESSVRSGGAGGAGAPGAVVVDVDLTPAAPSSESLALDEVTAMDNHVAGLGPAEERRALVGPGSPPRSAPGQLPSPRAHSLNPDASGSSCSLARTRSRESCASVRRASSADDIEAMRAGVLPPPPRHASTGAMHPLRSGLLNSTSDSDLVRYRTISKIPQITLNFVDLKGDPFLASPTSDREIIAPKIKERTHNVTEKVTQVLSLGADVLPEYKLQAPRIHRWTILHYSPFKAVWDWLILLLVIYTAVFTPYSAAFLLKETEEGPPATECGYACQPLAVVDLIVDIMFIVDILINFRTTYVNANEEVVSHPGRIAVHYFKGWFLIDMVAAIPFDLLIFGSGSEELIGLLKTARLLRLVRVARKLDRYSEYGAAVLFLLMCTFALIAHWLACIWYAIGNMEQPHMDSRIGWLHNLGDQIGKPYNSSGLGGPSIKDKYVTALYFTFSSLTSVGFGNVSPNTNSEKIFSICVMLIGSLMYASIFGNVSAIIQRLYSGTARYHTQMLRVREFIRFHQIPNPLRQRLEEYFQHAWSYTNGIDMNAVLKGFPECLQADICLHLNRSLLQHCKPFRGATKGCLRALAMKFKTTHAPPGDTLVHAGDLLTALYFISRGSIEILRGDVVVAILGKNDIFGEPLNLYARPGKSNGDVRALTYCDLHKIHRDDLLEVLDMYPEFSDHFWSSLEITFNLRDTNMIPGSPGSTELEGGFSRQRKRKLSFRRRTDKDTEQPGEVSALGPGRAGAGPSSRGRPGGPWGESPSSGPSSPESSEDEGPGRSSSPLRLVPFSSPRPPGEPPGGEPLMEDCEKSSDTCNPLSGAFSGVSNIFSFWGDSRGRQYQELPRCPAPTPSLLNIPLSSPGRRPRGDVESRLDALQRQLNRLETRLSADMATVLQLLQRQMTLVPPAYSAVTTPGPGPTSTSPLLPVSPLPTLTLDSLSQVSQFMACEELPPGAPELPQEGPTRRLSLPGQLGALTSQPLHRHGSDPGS

Regarding `CNC(=O)c1c[nH]c2ncc(-c3ccc(C(=O)NCCN(C)C)cc3)nc12` [compound 13, 13], in data set [1], the IC50 is 94 nM. With `CNC(=O)c1c[nH]c2ncc(-c3ccc(N4CCN(C)CC4)cc3)nc12` [compound 14, 14], at CDK1/cyclinB [2], the IC50 was > 30000 nM. Further, the microsomal CLint in the data set “in vitro [3]” turned out to be 83 µL/min/mg; in the data set “in vitro [4]” (read-out: Cl (human)) it was 9 µL/min/mg. For the same compound, in the data set “physchem”, the solubility (commonly the dissolved amount per volume that the medium holds) was 260 µM. Turning to `CNC(=O)c1c[nH]c2ncc(-c3cccc(CN(C)C)c3)nc12` [compound 11, 11], the IC50 in data set [1] stood at 206 nM.

`CNC(=O)c1c[nH]c2ncc(-c3ccc(OCCN4CCN(C(C)=O)CC4)cc3)nc12` [compound 17, 17]: the microsomal CLint in “in vitro [3]” amounted to 7 µL/min/mg. The IC50 in data set [1] is 80 nM.

On to `CNC(=O)c1c[nH]c2ncc(-c3ccc(C#N)cc3)nc12` [compound 8, 8], for which the IC50 in [1] came out at 339 nM. Regarding `CNC(=O)c1c[nH]c2ncc(-c3cccc(C(=O)NCCN(C)C)c3)nc12` [compound 12, 12], the IC50 in data set [1] worked out at 62 nM. As to `CNC(=O)c1c[nH]c2ncc(-c3ccc(OCCN4CCN(C)CC4)cc3)nc12` [compound 16, 16], the microsomal CLint in “in vitro [3]” worked out at 18 µL/min/mg. Also, in data set [1], the IC50 turned out to be 31 nM. Turning to `CNC(=O)c1c[nH]c2ncc(N3CCN(C)CC3)nc12` [compound 7, 7], the IC50 in [1] came to 4240 nM.

Turning to `CNC(=O)c1c[nH]c2ncc(-c3ccc(OCCN4CC[C@@H](c5ccccc5)C4)cc3)nc12` [21 (S), compound 21, S stereoisomer], in [5], the IC50 was determined as 10.9 ± 2 nM.

For the compound `CNC(=O)c1c[nH]c2ncc(-c3ccc(OCCN4CCCC4)cc3)nc12` [compound 19, 19], the microsomal CLint in “in vitro [3]” was 37 µL/min/mg. `CNC(=O)c1c[nH]c2ncc(-c3ccc(OCCN4CC[C@H](c5ccccc5)C4)cc3)nc12` [21 (R), compound 21, R stereoisomer] had an IC50 in [5] of 13.3 ± 6.4 nM. With `CNC(=O)c1c[nH]c2ncc(OCCN3CCCC3)nc12` [compound 6, 6], the IC50 in data set [1] worked out at 5880 nM.

As to `CNC(=O)c1c[nH]c2ncc(-c3ccc(OCCN4CCOCC4)cc3)nc12` [compound 15, 15], in “in vitro [3]”, the microsomal CLint stood at 11 µL/min/mg. In addition, in data set [1], the IC50 came out at 191 nM. `CNC(=O)c1c[nH]c2ncc(-c3cccnc3)nc12` [compound 10, 10]: the IC50 in data set [1] came to 507 nM. Take `CNC(=O)c1c[nH]c2ncc(-c3ccc(OCCN4CCCCC4)cc3)nc12` [compound 20, 20]: in the data set “in vitro [3]”, the microsomal CLint stood at 12 µL/min/mg. In addition, the solubility in the data set “physchem” was 585 µM. For the compound `CNC(=O)c1c[nH]c2ncc(-c3cn(C)c4ccccc34)nc12` [compound 1, 1], the IC50 against CDK1/cyclinB [2] was 1480 nM; at CDK1/cyclinB [6], 3160 nM; at Syk, 25.1 nM; in data set [1] (read-out: K72MGWL HTRF pIC50 (converted)) it was 100 nM; on hERG, > 30000 nM. Moreover, the microsomal CLint in the data set “in vitro [3]” is 196 µL/min/mg; in the data set “in vitro [4]” (read-out: Cl (human)), 147 µL/min/mg; in the data set “in vitro [4]” (read-out: hMic Clint), 45 µL/min/mg. The solubility in the data set “physchem” stood at 15 µM. Consider `CNC(=O)c1c[nH]c2ncc(-c3ccc(OCCN4CCC(OC)CC4)cc3)nc12` [compound 18, 18], for which the solubility in the data set “physchem” came out at 504 µM.
